Test results taken from publication PMC3488320, “Indirubin derivative E804 inhibits angiogenesis” (BMC Cancer, 2012).

Biological target: T1, VEGFR-2 (Homo sapiens, UniProt P35968)
T1 construct: gene KDR
Assay: HTScan VEGFR-2 kinase assay kit (purified kinase, peptide substrate, pTyr-100 ELISA)
Assay type: biochemical

T1 sequence (P35968 20-1356): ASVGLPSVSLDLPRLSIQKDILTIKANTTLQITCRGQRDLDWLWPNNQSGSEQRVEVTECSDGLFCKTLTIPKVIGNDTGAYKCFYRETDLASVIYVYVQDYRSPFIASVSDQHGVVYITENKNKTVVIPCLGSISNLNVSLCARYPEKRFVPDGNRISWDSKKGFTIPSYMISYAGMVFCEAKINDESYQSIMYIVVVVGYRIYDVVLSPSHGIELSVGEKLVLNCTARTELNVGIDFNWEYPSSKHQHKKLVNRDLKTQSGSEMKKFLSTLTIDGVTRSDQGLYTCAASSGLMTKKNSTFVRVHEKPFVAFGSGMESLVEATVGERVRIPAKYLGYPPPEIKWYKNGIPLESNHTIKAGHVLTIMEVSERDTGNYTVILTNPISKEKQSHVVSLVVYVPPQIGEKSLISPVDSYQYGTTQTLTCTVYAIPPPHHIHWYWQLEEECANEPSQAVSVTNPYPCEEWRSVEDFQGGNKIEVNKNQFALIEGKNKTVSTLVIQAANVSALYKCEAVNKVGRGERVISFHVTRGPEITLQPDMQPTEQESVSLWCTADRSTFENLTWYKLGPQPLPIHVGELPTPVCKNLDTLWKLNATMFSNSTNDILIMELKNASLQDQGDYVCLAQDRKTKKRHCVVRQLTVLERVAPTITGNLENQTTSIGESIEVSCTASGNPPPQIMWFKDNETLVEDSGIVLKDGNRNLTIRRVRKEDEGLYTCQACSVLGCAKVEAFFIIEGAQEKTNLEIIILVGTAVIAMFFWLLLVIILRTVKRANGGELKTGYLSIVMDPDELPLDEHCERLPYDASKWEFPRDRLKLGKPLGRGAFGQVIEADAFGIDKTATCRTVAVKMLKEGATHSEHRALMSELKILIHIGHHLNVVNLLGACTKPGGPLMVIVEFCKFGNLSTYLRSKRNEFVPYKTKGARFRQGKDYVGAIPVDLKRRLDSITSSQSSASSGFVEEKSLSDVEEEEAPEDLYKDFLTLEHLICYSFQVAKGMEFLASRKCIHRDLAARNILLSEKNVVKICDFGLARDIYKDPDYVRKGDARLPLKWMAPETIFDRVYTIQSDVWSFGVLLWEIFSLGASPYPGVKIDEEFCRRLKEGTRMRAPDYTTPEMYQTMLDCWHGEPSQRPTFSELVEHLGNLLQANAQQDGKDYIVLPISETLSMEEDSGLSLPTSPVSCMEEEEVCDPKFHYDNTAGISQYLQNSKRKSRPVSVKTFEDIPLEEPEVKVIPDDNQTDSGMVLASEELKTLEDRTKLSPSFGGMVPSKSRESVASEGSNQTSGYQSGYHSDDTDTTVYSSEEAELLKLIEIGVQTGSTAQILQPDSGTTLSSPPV

IC50: 950 nM
SMILES: O=C1Nc2ccccc2C1=C1Nc2ccccc2C1=NOCC(O)CO (stereo not shown) [IDR-E804]
